Measurements as given in US12030904B2 (priority 2020, dated 2024).
Like-named read-outs stand apart in the source and are kept apart here.

Key:
MT4 cytotoxicity (CC50) = settings: human, MT4 cells
[1] = system: Recombinant Respiratory Syncytial virus strain A2 containing the firefly luciferase reporter (RSV-Fluc); assay: microbe, parasite or virus in culture; type: cell-based; settings: human respiratory syncytial virus, NHBE
SARS-CoV-2 = assay: microbe, parasite or virus in culture; type: cell-based; settings: Severe acute respiratory syndrome coronavirus 2, read-out: SARS EC50
[2] = 72 h, read-out: RSV-Fluc EC50 (NHBE), NHBE cells, three days, Table 2

| Compound | CC50 (MT4 cytotoxicity (CC50); MT4 CC50, Table 4) | EC50 ([1]; read-out: RSV EC50, Table 4) | EC50 (SARS-CoV-2) | CC50 (MT4 cytotoxicity (CC50); MT4 CC50, Table 2a) | EC50 [1, 2] | EC50 ([1]; read-out: RSV EC50, Table 2a) |
| --- | --- | --- | --- | --- | --- | --- |
| CCCCCCCCCCCCCCCCCCOC[C@H](COP(=O)(O)OC[C@H]1O[C@@](C#N)(c2ccc3c(N)ncnn23)[C@H](O)[C@@H]1O)Oc1cccc(C#N)n1 [Example 100, [(2R,3S,4R,5R)-5-(4-aminopyrrolo[2,1-f][1,2,4]triazin-7-yl)-5-cyano-3,4-dihydroxy-tetrahydrofuran-2-yl]methyl [(2R)-2-[(6-cyano-2-pyridyl)oxy]-3-octadecoxy-propyl]hydrogen phosphate] | 1180 nM | 58 nM | 340 nM |  |  |  |
| CCCCCCCCCCCCCCCCOC[C@H](COP(=O)(O)OC[C@H]1O[C@@](C#N)(c2ccc3c(N)ncnn23)[C@H](O)[C@@H]1O)OCc1ccc(C#N)c(F)c1 [Example 113, [(2R,3S,4R,5R)-5-(4-aminopyrrolo[2,1-f][1,2,4]triazin-7-yl)-5-cyano-3,4-dihydroxy-tetrahydrofuran-2-yl]methyl [(2R)-2-[(4-cyano-3-fluoro-phenyl)methoxy]-3-hexadecoxy-propyl] hydrogen phosphate] | 5450 nM | 210 nM | 1100 nM |  |  |  |
| CCCCCCCCCCCCCCOCCCOP(=O)(O)OC[C@H]1O[C@@](C#N)(c2ccc3c(N)ncnn23)[C@H](O)[C@@H]1O [Example 58, ((2R,3S,4R,5R)-5-(4-Aminopyrrolo[2,1-f][1,2,4]triazin-7-yl)-5-cyano-3,4-dihydroxytetrahydrofuran-2-yl)methyl (3-(tetradecyloxy)propyl) hydrogen phosphate] |  |  | 10000 nM | 13000 nM | 70 nM | 70 nM |
| CCCCCCCCCCCCCCCCCCOC[C@H](COP(=O)(O)OC[C@H]1O[C@@](C#N)(c2ccc3c(N)ncnn23)[C@H](O)[C@@H]1O)OCc1ccc(Cl)cc1 [Example 41, ((2R,3S,4R,5R)-5-(4-aminopyrrolo[2,1-f][1,2,4]triazin-7-yl)-5-cyano-3,4-dihydroxytetrahydrofuran-2-yl)methyl ((R)-2-((4-chlorobenzyl)oxy)-3-(octadecyloxy)propyl) hydrogen phosphate] |  |  | 174 nM | 2410 nM | 52 nM | 52 nM |
| CCCCCCCCCCCCCCCCCCOC[C@H](COP(=O)(O)OC[C@H]1O[C@@](C#N)(c2ccc3c(N)ncnn23)[C@H](O)[C@@H]1O)OCc1ccc(C#N)nc1 [Example 116, [(2R,3S,4R,5R)-5-(4-aminopyrrolo[2,1-f][1,2,4]triazin-7-yl)-5-cyano-3,4-dihydroxy-tetrahydrofuran-2-yl]methyl [(2R)-2-[(6-cyano-3-pyridyl)methoxy]-3-octadecoxy-propyl] hydrogen phosphate] | 690 nM | 26 nM | 170 nM |  |  |  |
| CCCCCCCCCCCCCCCCCCOC[C@H](COP(=O)(O)OC[C@H]1O[C@@](C#N)(c2ccc3c(N)ncnn23)[C@H](O)[C@@H]1O)OCc1ccc(OC)c(Cl)c1 [Example 49, ((2R,3S,4R,5R)-5-(4-aminopyrrolo[2,1-f][1,2,4]triazin-7-yl)-5-cyano-3,4-dihydroxytetrahydrofuran-2-yl)methyl ((R)-2-((3-chloro-4-methoxybenzyl)oxy)-3-(octadecyloxy)propyl) hydrogen phosphate] |  |  | 3350 nM | 951 nM | 230 nM | 232 nM |
| CCCCCCCCCCCCCCCCCCOC[C@H](COP(=O)(O)OC[C@H]1O[C@@](C#N)(c2ccc3c(N)ncnn23)[C@H](O)[C@@H]1O)OCc1ccc(C#N)cc1C(F)(F)F [Example 105, [(2R,3S,4R,5R)-5-(4-Aminopyrrolo[2,1-f][1,2,4]triazin-7-yl)-5-cyano-3,4-dihydroxy-tetrahydrofuran-2-yl]methyl [(2R)-2-[[4-cyano-2-(trifluoromethyl)phenyl]methoxy]-3-octadecoxy-propyl] hydrogen phosphate] | 20100 nM | 553 nM | 10000 nM |  |  |  |
| CCCCCCCC/C=C/CCCCCCCCOC[C@H](COP(=O)(O)OC[C@H]1O[C@@](C#N)(c2ccc3c(N)ncnn23)[C@H](O)[C@@H]1O)OCc1ccc(C#N)cc1F [Example 127, ((2R,3S,4R,5R)-5-(4-aminopyrrolo[2,1-f][1,2,4]triazin-7-yl)-5-cyano-3,4-dihydroxytetrahydrofuran-2-yl)methyl ((R)-2-((4-cyano-2-fluorobenzyl)oxy)-3-(((E)-octadec-9-en-1-yl)oxy)propyl) hydrogen phosphate] | 3910 nM | 28 nM | 140 nM |  |  |  |
| CCCCCCCCCCCCOCCCOP(=O)(O)OC[C@H]1O[C@@](C#N)(c2ccc3c(N)ncnn23)[C@H](O)[C@@H]1O [Example 57, ((2R,3S,4R,5R)-5-(4-Aminopyrrolo[2,1-f][1,2,4]triazin-7-yl)-5-cyano-3,4-dihydroxytetrahydrofuran-2-yl)methyl (3-(dodecyloxy)propyl) hydrogen phosphate] |  |  | 10000 nM | 50000 nM | 2200 nM | 2180 nM |
| CCCCCCCCCCCCCCCCCCOC[C@H](COP(=O)(O)OC[C@H]1O[C@@](C#N)(c2ccc3c(N)ncnn23)[C@H](O)[C@@H]1O)OCc1ccc(C#N)cc1F [Example 53, ((2R,3S,4R,5R)-5-(4-aminopyrrolo[2,1-f][1,2,4]triazin-7-yl)-5-cyano-3,4-dihydroxytetrahydrofuran-2-yl)methyl ((R)-2-((4-cyano-2-fluorobenzyl)oxy)-3-(octadecyloxy)propyl) hydrogen phosphate] |  |  | 912 nM | 1840 nM |  | 32 nM |
| CCCCCCCCCCCCCCCCCCOC[C@H](COP(=O)(O)OC[C@H]1O[C@@](C#N)(c2ccc3c(N)ncnn23)[C@H](O)[C@@H]1O)OCc1ccc(Cl)c(Cl)c1 [Example 48, ((2R,3S,4R,5R)-5-(4-aminopyrrolo[2,1-f][1,2,4]triazin-7-yl)-5-cyano-3,4-dihydroxytetrahydrofuran-2-yl)methyl ((R)-2-((3,4-dichlorobenzyl)oxy)-3-(octadecyloxy)propyl) hydrogen phosphate] |  |  | 10000 nM | 1610 nM | 78 nM | 78 nM |
| CCCCCCCCCCCCCCCCCCOC[C@@H](CCc1ccccc1)COP(=O)(O)OC[C@H]1O[C@@](C#N)(c2ccc3c(N)ncnn23)[C@H](O)[C@@H]1O [Example 22, ((2R,3S,4R,5R)-5-(4-aminopyrrolo[2,1-f][1,2,4]triazin-7-yl)-5-cyano-3,4-dihydroxytetrahydrofuran-2-yl)methyl ((R)-2-((octadecyloxy)methyl)-4-phenylbutyl) hydrogen phosphate] |  |  | 5220 nM | 26400 nM | 160 nM | 158 nM |
| CCCCCCCCCCCCCCCCCCOC[C@H](COP(=O)(O)OC[C@H]1O[C@@](C#N)(c2ccc3c(N)ncnn23)[C@H](O)[C@@H]1O)OCc1cccc(C(F)F)c1 [Example 32, ((2R,3S,4R,5R)-5-(4-aminopyrrolo[2,1-f][1,2,4]triazin-7-yl)-5-cyano-3,4-dihydroxytetrahydrofuran-2-yl)methyl ((R)-2-((3-(difluoromethyl)benzyl)oxy)-3-(octadecyloxy)propyl) hydrogen phosphate] |  |  | 3040 nM | 2660 nM |  | 64 nM |
| CCCCCCCCCCCCCCCCCCOC[C@H](COP(=O)(O)OC[C@H]1O[C@@](C#N)(c2ccc3c(N)ncnn23)[C@H](O)[C@@H]1O)Oc1ccccc1C#N [Example 73, ((2R,3S,4R,5R)-5-(4-aminopyrrolo[2,1-f][1,2,4]triazin-7-yl)-5-cyano-3,4-dihydroxytetrahydrofuran-2-yl)methyl ((R)-2-(2-cyanophenoxy)-3-(octadecyloxy)propyl) hydrogen phosphate] | 1200 nM | 107 nM | 150 nM |  |  |  |
| CCCCCCCCCCCCCCCCCCOC[C@H](COP(=O)(O)OC[C@H]1O[C@@](C#N)(c2ccc3c(N)ncnn23)[C@H](O)[C@@H]1O)OCc1cccc(F)c1 [Example 45, ((2R,3S,4R,5R)-5-(4-aminopyrrolo[2,1-f][1,2,4]triazin-7-yl)-5-cyano-3,4-dihydroxytetrahydrofuran-2-yl)methyl ((R)-2-((3-fluorobenzyl)oxy)-3-(octadecyloxy)propyl) hydrogen phosphate] |  |  | 311 nM | 4420 nM | 69 nM | 69 nM |
| CCCCCCCCCCCCCCCCCCOC[C@](C)(COP(=O)(O)OC[C@H]1O[C@@](C#N)(c2ccc3c(N)ncnn23)[C@H](O)[C@@H]1O)OCc1ccccc1 [Example 21, ((2R,3S,4R,5R)-5-(4-aminopyrrolo[2,1-f][1,2,4]triazin-7-yl)-5-cyano-3,4-dihydroxytetrahydrofuran-2-yl)methyl ((R)-2-(benzyloxy)-2-methyl-3-(octadecyloxy)propyl) hydrogen phosphate] |  |  | 1740 nM | 50000 nM | 76 nM | 77 nM |
| CCCCCCCCCCCCCCCCCOCCCOP(=O)(O)OC[C@H]1O[C@@](C#N)(c2ccc3c(N)ncnn23)[C@H](O)[C@@H]1O [Example 55, ((2R,3S,4R,5R)-5-(4-aminopyrrolo[2,1-f][1,2,4]triazin-7-yl)-5-cyano-3,4-dihydroxytetrahydrofuran-2-yl)methyl (3-(heptadecyloxy)propyl) hydrogen phosphate] |  |  | 9420 nM | 29900 nM |  | 86 nM |
| CCCCCCCCCCCCCCCCCCOC[C@H](COP(=O)(O)OC[C@H]1O[C@@](C#N)(c2ccc3c(N)ncnn23)[C@H](O)[C@@H]1O)Oc1ccc(C#N)c(OC)c1 [Example 74, ((2R,3S,4R,5R)-5-(4-aminopyrrolo[2,1-f][1,2,4]triazin-7-yl)-5-cyano-3,4-dihydroxytetrahydrofuran-2-yl)methyl ((R)-2-(4-cyano-3-methoxyphenoxy)-3-(octadecyloxy)propyl) hydrogen phosphate] | 196 nM | 10 nM | 31 nM |  |  |  |
